{"source": "paper PMC4922569", "about": "“Antifibrotic Effects of the Dual CCR2/CCR5 Antagonist Cenicriviroc in Animal Models of Liver and Kidney Fibrosis” (PLoS ONE, 2016)", "tested_on": "diet-induced NASH", "test": "Mouse model of diet-induced NASH", "assay_type": "in vivo", "conditions": "for NAS, mean (±SD): vehicle 5.3 (±0.5); for Liver hydroxyproline content: vehicle 0.75±0.18; for Percentage of inflammation area (F4/80+ area): vehicle 4.99±1.10; for M1/M2 ratio (F4/80+CD16/32+ / F4/80+CD206+): vehicle 99.6±20.2; for Reduction in modified fibrosis area (perivascular space subtracted) vs vehicle control / Reduction in percentage of fibrosis area vs vehicle control: p < 0.01; for Plasma CCL2 levels: vehicle 60±4", "description": "NASH was induced in male C57BL/6 mice (Charles River Laboratories, Japan) via subcutaneous injection of 200 μg of streptozotocin 2 days post-birth (causing mild islet inflammation and islet destruction) plus a high-fat diet (57 kcal% fat) from 4 weeks of age (sequentially causing fatty changes to the liver, NASH and fibrosis). From Weeks 6 to 9, three groups (n = 9/group) received vehicle control, CVC20 or CVC100 BID PO (S1 Table). At Week 9, six animals per group were sacrificed for assessment of liver fibrosis and Non-Alcoholic Fatty Liver Disease (NAFLD) Activity Score (NAS). The animals were sacrificed by exsanguination through direct cardiac puncture under ether anesthesia. Study endpoints included: body and liver weights, plasma biochemistry (e.g. ALT and CCL2), extracellular matrix protein in liver tissue (hydroxyproline content), mRNA expression (collagen type 1, tumor necrosis factor-alpha, MCP-1, TIMP1) and histopathological analyses. Blood samples were collected and plasma samples derived for biochemistry assessments. Sections were cut from paraffin blocks of liver tissue, prefixed in Bouin’s solution and stained with H&E for histological examination.\nIn the TAA model, serum ALT/AST levels were measured using VITROS® 5,1 FS (Ortho Clinical Diagnostics, USA), with plasma diluted with VITROS® 7% bovine serum albumin if needed. In the NASH model, plasma ALT levels were measured by FUJI DRI-CHEM 7000 (Fujifilm, Japan) and plasma CCL2 concentration quantified by the mouse CCL2/JE/MCP-1 immunoassay kit (R&D, USA).\nIn the NASH model, bright field images of picrosirius red-stained sections were captured around the central vein using a digital camera (DFC280; Leica, Germany) at 200x magnification; the ‘positive’ areas in five fields/sections were measured using ImageJ software (National Institutes of Health, USA). Perivascular areas were subtracted from the total positive areas for each field (modified fibrosis area). The NAS, a histological tool developed to assess disease severity in humans, was assessed in a blinded fashion and calculated according to Kleiner’s criteria on H&E-stained sections. It is based on the semi-quantification of steatosis, lobular inflammation and hepatocellular ballooning.\nIn the NASH model, liver sections fixed in acetone were incubated with anti-F4/80 antibody (BMA Biomedicals, Switzerland) to assess inflammation. Double immunohistochemical analyses were performed with anti-CD206 (RayBiotec, USA) or anti-CD16/32 (BD Biosciences, USA) antibodies. Cells were counted and the M1/M2 polarization ratio was calculated as mean percentage of F4/80+CD16/32+ cells/mean percentage of F4/80+CD206+ cells.\nIn the NASH model, frozen liver samples were subjected to an alkaline-acid hydrolysis, then centrifuged, and the supernatant collected. Hydroxyproline content was quantified against a hydroxyproline standard curve, with a BCA protein assay kit (Thermo Fisher Scientific, USA) used to normalize the calculated hydroxyproline values.\nIn the hepatic-fibrosis models, RNA was extracted from liver tissues and purified, and 1 μg of total mRNA was reverse-transcribed into complementary DNA. Expression levels were determined by quantitative polymerase chain reaction (PCR) (iQ™ SYBR® Green Supermix [Bio-Rad Laboratories, USA] on the LightCycler® 480 Real-Time PCR System [Roche, Switzerland]) in the TAA model at Week 8 (early intervention and established fibrosis) and Week 12 (cirrhosis reversal), and by real-time PCR (PCR Dice® and SYBR® Premix Ex Taq™ [Takara Bio Inc., Japan]) at Week 9 in the NASH model.\nRelative mRNA expression levels were normalized to the following reference genes: TAA model, GAPDH; NASH model, 36B4 (gene symbol: Rplp0); UUO model, hypoxanthine phosphoribosyltransferase.\nIn the NASH model, data are expressed as mean ±standard deviation (SD). Statistical analyses were performed using the Bonferroni multiple comparison test (GraphPad Prism® 4 software).", "note": "Counter-ions that a name gives are not always drawn."}
{"smiles": "CCCCOCCOc1ccc(-c2ccc3c(c2)/C=C(/C(=O)Nc2ccc([S@@+]([O-])Cc4cncn4CCC)cc2)CCCN3CC(C)C)cc1", "note": "[CVC, cenicriviroc mesylate]", "values": [{"measurement": "Hepatocyte ballooning score 0, number of animals", "setting": "CVC20, n = 6", "result": 0}, {"measurement": "Hepatocyte ballooning score 1, number of animals", "setting": "CVC20, n = 6", "result": 3}, {"measurement": "Hepatocyte ballooning score 2, number of animals", "setting": "CVC20, n = 6", "result": 3}, {"measurement": "Lobular inflammation score 0, number of animals", "setting": "CVC20, n = 6", "result": 0}, {"measurement": "Lobular inflammation score 1, number of animals", "setting": "CVC20, n = 6", "result": 3}, {"measurement": "Lobular inflammation score 2, number of animals", "setting": "CVC20, n = 6", "result": 3}, {"measurement": "Lobular inflammation score 3, number of animals", "setting": "CVC20, n = 6", "result": 0}, {"measurement": "Steatosis score 0, number of animals", "setting": "CVC20, n = 6", "result": 0}, {"measurement": "Steatosis score 1, number of animals", "setting": "CVC20, n = 6", "result": 6}, {"measurement": "Steatosis score 2, number of animals", "setting": "CVC20, n = 6", "result": 0}, {"measurement": "Steatosis score 3, number of animals", "setting": "CVC20, n = 6", "result": 0}, {"measurement": "NAS, mean (±SD)", "setting": "CVC20, n = 6, p = 0.0013", "result": "4.0 (±0.6)"}, {"measurement": "Reduction in collagen type 1 mRNA expression vs vehicle control", "setting": "CVC20, p < 0.05", "result": 37, "unit": "%"}, {"measurement": "Liver hydroxyproline content", "setting": "CVC20", "result": "0.63 ± 0.05", "unit": "µg/mg"}, {"measurement": "Percentage of inflammation area (F4/80+ area)", "setting": "CVC20, not significant", "result": "4.77±1.02", "unit": "%"}, {"measurement": "M1/M2 ratio (F4/80+CD16/32+ / F4/80+CD206+)", "setting": "CVC20, not significant", "result": "112.3±17.0", "unit": "%"}, {"measurement": "Reduction in modified fibrosis area (perivascular space subtracted) vs vehicle control", "setting": "CVC20 BID PO Weeks 6-9", "result": 52.5, "unit": "%"}, {"measurement": "Reduction in percentage of fibrosis area vs vehicle control", "setting": "CVC20 BID PO Weeks 6-9", "result": 40.0, "unit": "%"}, {"measurement": "Plasma CCL2 levels", "setting": "CVC20 BID PO Weeks 6-9, not significant", "result": "68 ± 16", "unit": "pg/mL"}, {"measurement": "Hepatocyte ballooning score 0, number of animals", "setting": "CVC100, n = 6", "result": 1}, {"measurement": "Hepatocyte ballooning score 1, number of animals", "setting": "CVC100, n = 6", "result": 2}, {"measurement": "Hepatocyte ballooning score 2, number of animals", "setting": "CVC100, n = 6", "result": 3}, {"measurement": "Lobular inflammation score 0, number of animals", "setting": "CVC100, n = 6", "result": 0}, {"measurement": "Lobular inflammation score 1, number of animals", "setting": "CVC100, n = 6", "result": 3}, {"measurement": "Lobular inflammation score 2, number of animals", "setting": "CVC100, n = 6", "result": 3}, {"measurement": "Lobular inflammation score 3, number of animals", "setting": "CVC100, n = 6", "result": 0}, {"measurement": "Steatosis score 0, number of animals", "setting": "CVC100, n = 6", "result": 1}, {"measurement": "Steatosis score 1, number of animals", "setting": "CVC100, n = 6", "result": 5}, {"measurement": "Steatosis score 2, number of animals", "setting": "CVC100, n = 6", "result": 0}, {"measurement": "Steatosis score 3, number of animals", "setting": "CVC100, n = 6", "result": 0}, {"measurement": "NAS, mean (±SD)", "setting": "CVC100, n = 6, p = 0.0009", "result": "3.7 (±0.8)"}, {"measurement": "Reduction in collagen type 1 mRNA expression vs vehicle control", "setting": "CVC100, not statistically significant", "result": 27, "unit": "%"}, {"measurement": "Liver hydroxyproline content", "setting": "CVC100", "result": "0.62 ± 0.09", "unit": "µg/mg"}, {"measurement": "M1/M2 ratio (F4/80+CD16/32+ / F4/80+CD206+)", "setting": "CVC100, not significant", "result": "125.1±21.9", "unit": "%"}, {"measurement": "Reduction in modified fibrosis area (perivascular space subtracted) vs vehicle control", "setting": "CVC100 BID PO Weeks 6-9", "result": 67.2, "unit": "%"}, {"measurement": "Reduction in percentage of fibrosis area vs vehicle control", "setting": "CVC100 BID PO Weeks 6-9", "result": 41.8, "unit": "%"}, {"measurement": "Plasma CCL2 levels", "setting": "CVC100 BID PO Weeks 6-9, significant increase", "result": "91 ± 14", "unit": "pg/mL"}, {"measurement": "Percentage of inflammation area (F4/80+ area)", "setting": "CVC-high, not significant", "result": "4.96±0.60", "unit": "%"}, {"measurement": "mRNA expression levels of the other fibrosis markers tested, vehicle control vs CVC groups", "setting": "NASH model, Week 9", "result": "no statistically significant differences"}, {"measurement": "Plasma ALT levels vs vehicle control", "setting": "both CVC doses (CVC20, CVC100 BID PO Weeks 6-9), p < 0.05", "result": "significantly decreased"}]}
